# Laboratory results as given in US9309263B2, “Fused multi-cyclic sulfone compounds as inhibitors of beta-secretase and methods of use thereof” (AMGEN INC., priority 2013, dated 2016).
# Read-outs that look alike come from different tables or passages of the source.
# Assays:
# [1] = target: Beta Secretase enzyme (BACE) (Homo sapiens, UniProt P56817); assay: In vitro enzymatic BACE FRET assay; assay type: biochemical; details: read-out: BACE1 FRET assay IC50
# How it was run: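 Enzyme (0.2 nM) pre-incubated 1 h with serially diluted inhibitors in 0.05 M acetate pH 4.2, 10% DMSO, 100 uM genapol. Reaction started with 50 nM fluorophore/quencher peptide FRET substrate, run 1 h, stopped with Tris to neutral pH. Fluorescence read at excitation 488 nm, […].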
# [2] = tested on: Aβ 40 in conditioned medium of cells stably expressing Amyloid Precursor Protein (APP); assay: In vitro BACE cell-based assay (Aβ 40 sandwich ELISA); details: Homo sapiens, HEK293
# How it was run: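 APP-expressing cells, 24 h pre-culture in DMEM/10% FBS, treated 24 h with 10-point compound dilutions from 100 or 10 μM top, 0.1% DMSO final. Secreted Aβ40 quantified by sandwich ELISA (pAb40 capture, biotinylated 6E10 detection, europium TRF); IC50 from percent inhibition versus concentration.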
# Cathepsin D (Cat D) = Cathepsin D (Cat D) (Homo sapiens, UniProt P07339); assay: In vitro enzymatic Cathepsin D (Cat D) FRET assay; assay type: biochemical
# How it was run: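 Recombinant CHO-expressed enzyme (9 nM) pre-incubated 1 h with serially diluted inhibitor in 0.05 M citrate pH 3.5, 10% DMSO final, 5 mM CHAPS. Reaction started with 20 nM FRET peptide substrate, run 1 h, stopped with Tris to neutral pH; fluorescence read at ex 500/em 580 nm.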
# [3] = average IC50, in vitro enzymatic BACE FRET assay
# [4] = average IC50, HEK cell assay, Aβ 40 readout
# [5] = Cathepsin D FRET assay, read-out: CatD IC50
# [6] = text summary referring to data in Table 2
# Sequence of Cathepsin D (Cat D) (P07339 65-412, species assumed): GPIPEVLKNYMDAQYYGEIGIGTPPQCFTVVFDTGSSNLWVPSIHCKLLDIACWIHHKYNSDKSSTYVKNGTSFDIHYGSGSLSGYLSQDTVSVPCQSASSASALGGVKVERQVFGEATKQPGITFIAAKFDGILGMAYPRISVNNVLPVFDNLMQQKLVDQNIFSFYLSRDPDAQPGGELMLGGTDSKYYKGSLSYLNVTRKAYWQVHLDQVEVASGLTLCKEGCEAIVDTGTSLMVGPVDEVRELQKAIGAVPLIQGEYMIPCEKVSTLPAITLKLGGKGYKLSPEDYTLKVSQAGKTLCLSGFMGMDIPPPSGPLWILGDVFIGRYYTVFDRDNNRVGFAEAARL
# Sequence of Beta Secretase enzyme (BACE) (P56817 46-501): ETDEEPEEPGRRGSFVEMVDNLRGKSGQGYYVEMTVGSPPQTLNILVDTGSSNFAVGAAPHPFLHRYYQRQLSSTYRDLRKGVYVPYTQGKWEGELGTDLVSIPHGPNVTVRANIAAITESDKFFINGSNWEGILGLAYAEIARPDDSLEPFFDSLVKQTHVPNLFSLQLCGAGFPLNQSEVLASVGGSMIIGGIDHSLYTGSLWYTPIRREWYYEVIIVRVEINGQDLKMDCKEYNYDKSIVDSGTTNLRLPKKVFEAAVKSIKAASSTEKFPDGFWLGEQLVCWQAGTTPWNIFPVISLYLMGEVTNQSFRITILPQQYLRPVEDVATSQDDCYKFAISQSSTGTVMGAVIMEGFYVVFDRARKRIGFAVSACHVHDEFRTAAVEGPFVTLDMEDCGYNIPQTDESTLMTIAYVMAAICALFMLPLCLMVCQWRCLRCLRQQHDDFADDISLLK
SMILES,"IC50 [1, 3] [nM]","IC50 [2, 4] [nM]",IC50 (Cathepsin D (Cat D); [5]) [µM],IC50 ([1]; average IC50) [nM],"IC50 ([2]; HEK cell, average IC50) [nM]",IC50 (Cathepsin D (Cat D); read-out: CatD IC50) [µM],"IC50 ([2]; HEK cells, average IC50) [nM]",IC50 (Cathepsin D (Cat D); [6]) [µM]
"Cc1cc(C(F)(F)F)cnc1C(=O)Nc1ccc2c(c1)[C@@]1(CF)N=C(N)C(C)(C)S(=O)(=O)[C@H]1C[C@H](C)O2 [Example 105, N-((4aS,6S,11bS)-2-amino-11b-(fluoromethyl)-3,3,6-trimethyl-4,4-dioxido-4a,5,6,11b-tetrahydro-3H-[1]benzoxepino[4,5-b][1,4]thiazin-10-yl)-3-methyl-5-(trifluoromethyl)-2-pyridinecarboxamide]",4,13,1480,–,–,–,–,–
"Cc1cc(C#N)cnc1C(=O)Nc1ccc2c(c1)[C@@]1(C)N=C(N)C(C)(C)S(=O)(=O)[C@]1(F)CCO2 [Example 111, N-((4aR,11bR)-2-amino-4a-fluoro-3,3,11b-trimethyl-4,4-dioxido-4a,5,6,11b-tetrahydro-3H-[1]benzoxepino[4,5-b][1,4]thiazin-10-yl)-5-cyano-3-methyl-2-pyridinecarboxamide]",5,19,331,–,–,–,–,–
"Cc1cc(C#N)cnc1C(=O)Nc1ccc2c(c1)[C@@]1(C)N=C(N)C(C)(C)S(=O)(=O)[C@@H]1CC(C)(C)O2 [Example 99, N-((4aR,11bR)-2-amino-3,3,6,6,11b-pentamethyl-4,4-dioxido-4a,5,6,11b-tetrahydro-3H-[1]benzoxepino[4,5-b][1,4]thiazin-10-yl)-5-cyano-3-methyl-2-pyridinecarboxamide]",8,2,> 400,–,–,–,–,–
"C[C@H]1C[C@H]2[C@](CF)(N=C(N)C(C)(C)S2(=O)=O)c2cc(Nc3nccc4cc(C#N)cnc34)ccc2O1 [Example 109, 8-(((4aS,6S,11bS)-2-amino-11b-(fluoromethyl)-3,3,6-trimethyl-4,4-dioxido-4a,5,6,11b-tetrahydro-3H-[1]benzoxepino[4,5-b][1,4]thiazin-10-yl)amino)-1,7-naphthyridine-3-carbonitrile]",3,8,> 400,–,–,–,–,–
"CC1(C)C(N)=N[C@]2(C)c3cc(NC(=O)c4ccc(Cl)cn4)ccc3CCC[C@H]2S1(=O)=O [Example 43, N-((4aR,11bR)-2-amino-3,3,11b-trimethyl-4,4-dioxido-3,4a,5,6,7,11b-hexahydrobenzo[3,4]cyclohepta[1,2-b][1,4]thiazin-10-yl)-5-chloro-2-pyridinecarboxamide]",–,–,–,12,19,458,–,–
"CC1(C)C(N)=N[C@]2(C)c3cc(NC(=O)c4ccc(OC(F)F)cn4)ccc3OCC[C@H]2S1(=O)=O [Example 194, N-((4aR,11bR)-2-amino-3,3,11b-trimethyl-4,4-dioxido-4a,5,6,11b-tetrahydro-3H-[1]benzoxepino[4,5-b][1,4]thiazin-10-yl)-5-(difluoromethoxy)-2-pyridinecarboxamide]",–,–,–,8,–,652,3,–
"CCCOc1cnc(C(=O)Nc2ccc3c(c2)[C@@]2(C)N=C(N)C(C)(C)S(=O)(=O)[C@@H]2C[C@H](C)O3)cn1 [Example 79, N-((4aR,6S,11bR)-2-amino-3,3,6,11b-tetramethyl-4,4-dioxido-4a,5,6,11b-tetrahydro-3H-[1]benzoxepino[4,5-b][1,4]thiazin-10-yl)-5-propoxy-2-pyrazinecarboxamide]",–,–,–,5,16,841,–,–
"CC#C[C@@H](C)Oc1cnc(C(=O)Nc2ccc3c(c2)[C@@]2(C)N=C(N)C(C)(C)S(=O)(=O)[C@@H]2CCO3)cn1 [Example 16, N-((4aR,11bR)-2-amino-3,3,11b-trimethyl-4,4-dioxido-4a,5,6,11b-tetrahydro-3H-[1]benzoxepino[4,5-b][1,4]thiazin-10-yl)-5-(((1R)-1-methyl-2-butyn-1-yl)oxy)-2-pyrazinecarboxamide]",–,–,–,30,138,979,–,> 800
"COc1cccnc1Nc1ccc2c(c1)[C@@]1(C)N=C(N)C(C)(C)S(=O)(=O)[C@@H]1CCO2 [Example 13, (4aR,11bR)-N^~10^~-(3-methoxy-2-pyridinyl)-3,3,11b-trimethyl-4a,5,6,11b-tetrahydro-3H-[1]benzoxepino[4,5-b][1,4]thiazine-2,10-diamine 4,4-dioxide]",–,–,–,94,73,369,–,–
"CC(C#N)Oc1ccc(C(=O)Nc2ccc3c(c2)[C@@]2(C)N=C(N)C(C)(C)S(=O)(=O)[C@@H]2CCO3)nc1 (mixture of isomers) [Example 125, N-((4aR,11bR)-2-amino-3,3,11b-trimethyl-4,4-dioxido-4a,5,6,11b-tetrahydro-3H-[1]benzoxepino[4,5-b][1,4]thiazin-10-yl)-5-((1R)-1-cyanoethoxy)-2-pyridinecarboxamide, N-((4aR,11bR)-2-amino-3,3,11b-trimethyl-4,4-dioxido-4a,5,6,11b-tetrahydro-3H-[1]benzoxepino[4,5-b][1,4]thiazin-10-yl)-5-((15)-1-cyanoethoxy)-2-pyridinecarboxamide]",56,67,1060,–,–,–,–,–
"C[C@H]1C[C@@H]2[C@](C)(N=C(N)C(C)(C)S2(=O)=O)c2cc(NC(=O)c3ccc(OCc4ncco4)cn3)ccc2O1 [Example 144, N-((4aR,6S,11bR)-2-amino-3,3,6,11b-tetramethyl-4,4-dioxido-4a,5,6,11b-tetrahydro-3H-[1]benzoxepino[4,5-b][1,4]thiazin-10-yl)-5-(1,3-oxazol-2-ylmethoxy)-2-pyridinecarboxamide]",4,3,564,–,–,–,–,–
"CC1(C)C[C@@H]2[C@](C)(N=C(N)C(C)(C)S2(=O)=O)c2cc(Nc3nccc4cc(C#N)cnc34)ccc2O1 [Example 112, 8-(((4aR,11bR)-2-amino-3,3,6,6,11b-pentamethyl-4,4-dioxido-4a,5,6,11b-tetrahydro-3H-[1]benzoxepino[4,5-b][1,4]thiazin-10-yl)amino)-1,7-naphthyridine-3-carbonitrile]",3,2,316,–,–,–,–,–
"Cc1cnc(COc2cnc(C(=O)Nc3ccc4c(c3)[C@@]3(C)N=C(N)C(C)(C)S(=O)(=O)[C@@H]3C[C@H](C)O4)cn2)o1 [Example 80, N-((4aR,6S,11bR)-2-amino-3,3,6,11b-tetramethyl-4,4-dioxido-4a,5,6,11b-tetrahydro-3H-[1]benzoxepino[4,5-b][1,4]thiazin-10-yl)-5-((5-methyl-1,3-oxazol-2-yl)methoxy)-2-pyrazinecarboxamide]",–,–,–,4,1,1490,–,> 1200
"COc1cnc(C(=O)Nc2ccc3c(c2)[C@@]2(CF)N=C(N)C(C)(C)S(=O)(=O)[C@@H]2CCO3)c(C)c1 [Example 152, N-((4aR,11bS)-2-amino-11b-(fluoromethyl)-3,3-dimethyl-4,4-dioxido-4a,5,6,11b-tetrahydro-3H-[1]benzoxepino[4,5-b][1,4]thiazin-10-yl)-5-methoxy-3-methyl-2-pyridinecarboxamide]",31,75,> 400,–,–,–,–,–
"Cc1c(C(=O)Nc2ccc3c(c2)[C@@]2(C)N=C(N)C(C)(C)S(=O)(=O)[C@@H]2CCO3)nc2ccc(Cl)cn12 [Example 28, N-((4aR,11bR)-2-amino-3,3,11b-trimethyl-4,4-dioxido-4a,5,6,11b-tetrahydro-3H-[1]benzoxepino[4,5-b][1,4]thiazin-10-yl)-6-chloro-3-methylimidazo[1,2-a]pyridine-2-carboxamide]",–,–,–,28,8,> 400,–,–
"Cc1cc(C(F)(F)F)cnc1C(=O)Nc1ccc2c(c1)[C@@]1(C)N=C(N)C(C)(C)S(=O)(=O)[C@@H]1CCC2 [Example 45, N-((4aR,11bR)-2-amino-3,3,11b-trimethyl-4,4-dioxido-3,4a,5,6,7,11b-hexahydrobenzo[3,4]cyclohepta[1,2-b][1,4]thiazin-10-yl)-3-methyl-5-(trifluoromethyl)-2-pyridinecarboxamide]",–,–,–,18,6,1460,–,> 1200
"CC1(C)C(N)=N[C@]2(C)c3cc(NC(=O)c4cnc(OCC5CC5)cn4)ccc3OCC[C@H]2S1(=O)=O [Example 88, N-((4aR,11bR)-2-amino-3,3,11b-trimethyl-4,4-dioxido-4a,5,6,11b-tetrahydro-3H-benzo[6,7]oxepino[4,5-b][1,4]thiazin-10-yl)-5-(cyclopropylmethoxy)pyrazine-2-carboxamide]",10,44,745,–,–,–,–,–
"Cc1cc(Cl)cnc1C(=O)Nc1ccc2c(c1)[C@@]1(CF)N=C(N)C(C)(C)S(=O)(=O)[C@H]1CCO2 [Example 147, N-((4aS,11bS)-2-amino-11b-(fluoromethyl)-3,3-dimethyl-4,4-dioxido-4a,5,6,11b-tetrahydro-3H-[1]benzoxepino[4,5-b][1,4]thiazin-10-yl)-5-chloro-3-methyl-2-pyridinecarboxamide]",3,9,1280,–,–,–,–,–
"CC#C[C@@H](C)Oc1ccc(C(=O)Nc2ccc3c(c2)[C@@]2(C)N=C(N)C(C)(C)S(=O)(=O)[C@@H]2CCO3)nc1 (single isomer, unassigned) [Example 68]",–,–,–,2,1,1990,–,> 1200
